Reference: patent US8673966B2, “ALDH-2 inhibitors in the treatment of addiction” (Gilead Sciences, Inc., priority 2011, dated 2014)
Several values for one entry are separate records, joined by “and”; a condition that tells them apart may be missing. Equal entries are not always repeated.

Assays:
Assay type in all cases: biochemical
hMAO-A = hMAO-A (Homo sapiens (Human), UniProt P21397); test: MAO-A assay (luminogenic MAO substrate); details: microsome contained MAO-A, 160 uM substrate, 20 min pre-incubation; unit inferred
hMAO-A, sequence (P21397 whole entry): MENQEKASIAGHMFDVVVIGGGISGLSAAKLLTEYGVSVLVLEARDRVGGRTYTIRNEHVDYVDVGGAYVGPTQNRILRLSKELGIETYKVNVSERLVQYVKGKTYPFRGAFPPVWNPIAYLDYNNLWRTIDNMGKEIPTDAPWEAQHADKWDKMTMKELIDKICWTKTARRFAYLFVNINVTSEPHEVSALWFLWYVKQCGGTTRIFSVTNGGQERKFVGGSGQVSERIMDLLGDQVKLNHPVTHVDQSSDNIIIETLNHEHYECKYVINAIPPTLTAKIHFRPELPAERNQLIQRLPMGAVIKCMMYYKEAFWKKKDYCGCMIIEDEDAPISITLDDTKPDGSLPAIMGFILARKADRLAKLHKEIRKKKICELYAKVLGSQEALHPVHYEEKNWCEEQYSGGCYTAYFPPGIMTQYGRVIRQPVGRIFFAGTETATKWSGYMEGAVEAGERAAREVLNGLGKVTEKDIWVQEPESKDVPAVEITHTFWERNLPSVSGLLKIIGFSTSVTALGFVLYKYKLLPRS
Description: (§1) MAO assays included luminogenic MAO substrate, reaction buffers, Luciferin Detection and the reconstitution buffer with esterase. Standard MAO reaction mixtures included microsome contained MAO-A (2 ug) or MAO-B (10 ug), 160 uM substrate for MAO-A or 16 uM substrate for MAO-B, MAO-A buffer (100 mM Hepes buffer, pH 7.5, 5% glycerol) or MAO-B buffer (100 mM Hepes, pH 7.5, 5% glycerol, 10% dimethyl sulfoxide) in a final volume of 30 ul. After 20 minutes of pre-incubation of the enzyme with compounds, the reaction was initiated by adding enzyme substrate and the reaction was allowed to proceed for 60 minutes. Reconstituted Luciferin Detection Reagent (30 ul) was then added is added to simultaneously stop the MAO reaction and convert the methyl ester derivative to luciferin and produce light. The amount of light produced is directly proportional to the activity of MAO. The mixtures were further incubated for 20 minutes and activity of the enzyme was determined using Perkin-Elmer Envision Reader.
(§2) Note: IC50 refers to the concentration of a compound that inhibits a reaction by 50%. In the case of competitive inhibition, IC50=2Ki when the substrate is present at the Km concentration, as per the relationship: Ki=IC50/[1+(substrate concentration/Km)].

recombinant human ALDH2 = recombinant human ALDH2 (Homo sapiens (Human), UniProt P05091); test: ALDH2 assay (NADH formation); details: 10 nM recombinant human ALDH2, 150 uM formaldehyde, 60 min pre-incubation; read-out: IC50 hALDH2
recombinant human ALDH2, sequence (P05091 18-517): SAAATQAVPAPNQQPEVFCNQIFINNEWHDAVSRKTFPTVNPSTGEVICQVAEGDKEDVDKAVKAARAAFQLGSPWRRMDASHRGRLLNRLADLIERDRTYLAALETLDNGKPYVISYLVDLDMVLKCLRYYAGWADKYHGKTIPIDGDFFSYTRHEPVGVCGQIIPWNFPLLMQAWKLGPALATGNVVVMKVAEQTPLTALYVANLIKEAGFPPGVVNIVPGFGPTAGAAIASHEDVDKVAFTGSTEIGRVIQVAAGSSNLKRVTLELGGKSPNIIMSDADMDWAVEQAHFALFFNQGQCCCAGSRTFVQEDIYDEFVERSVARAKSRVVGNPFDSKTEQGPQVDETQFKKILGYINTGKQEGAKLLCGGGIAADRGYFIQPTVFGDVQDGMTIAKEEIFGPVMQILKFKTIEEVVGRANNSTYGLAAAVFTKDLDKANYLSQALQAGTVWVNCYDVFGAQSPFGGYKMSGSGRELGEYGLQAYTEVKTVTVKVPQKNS
Description: Standard ALDH2 reaction mixtures contained 150 uM formaldehyde, 2.5 mM NAD^+, 10 mM MgCl2 and 10 nM recombinant human ALDH2 in 50 mM Hepes buffer, pH 7.4, 0.01% Tween 20 in a final volume of 50 ul using 384-well plates. After 60 min of pre-incubation of compound with ALDH2 and formaldehyde, the reaction was started by adding NAD+ and the reaction mixture was allowed to proceed for 90 minutes. Activity of the enzyme was determined by monitoring NADH formation using Perkin-Elmer Envision Reader with excitation and emission wavelengths set at 340 and 460 nm, respectively.
as §2

hMAO-B = hMAO-B (Homo sapiens (Human), UniProt P27338); test: MAO-B assay (luminogenic MAO substrate); details: microsome contained MAO-B, 16 uM substrate, 20 min pre-incubation; unit inferred
hMAO-B, sequence (P27338 whole entry): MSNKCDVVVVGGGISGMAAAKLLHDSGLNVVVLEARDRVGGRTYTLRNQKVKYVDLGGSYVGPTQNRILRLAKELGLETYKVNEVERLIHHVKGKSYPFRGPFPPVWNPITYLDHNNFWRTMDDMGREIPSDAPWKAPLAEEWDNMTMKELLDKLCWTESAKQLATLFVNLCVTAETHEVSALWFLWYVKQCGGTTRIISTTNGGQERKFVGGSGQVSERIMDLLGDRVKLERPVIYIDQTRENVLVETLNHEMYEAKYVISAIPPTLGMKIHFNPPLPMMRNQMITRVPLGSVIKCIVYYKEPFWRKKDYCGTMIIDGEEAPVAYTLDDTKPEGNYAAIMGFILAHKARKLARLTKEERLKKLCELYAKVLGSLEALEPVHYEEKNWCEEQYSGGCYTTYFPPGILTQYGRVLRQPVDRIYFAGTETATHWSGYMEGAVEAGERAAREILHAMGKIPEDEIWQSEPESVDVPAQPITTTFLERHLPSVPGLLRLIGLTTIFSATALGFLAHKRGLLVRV
Description: as §1, §2

Cn1cncc1C#Cc1ccc2c(=O)c(-c3ccc(NS(C)(=O)=O)cc3)coc2c1 [N-(4-(7-((1-methyl-1H-imidazol-5-yl)ethynyl)-4-oxo-4H-chromen-3-yl)phenyl)methanesulfonamide]
IC50 (hMAO-A): > 130 µM
IC50 (recombinant human ALDH2): < 4.9 nM
IC50 (hMAO-B): 0.365 µM

CS(=O)(=O)Nc1ccc(-c2coc3cc(C#Cc4ccccn4)ccc3c2=O)cc1 [N-(4-(4-oxo-7-(pyridin-2-ylethynyl)-4H-chromen-3-yl)phenyl)methanesulfonamide]
IC50 (hMAO-A): > 130 µM
IC50 (recombinant human ALDH2): 90 nM
IC50 (hMAO-B): > 130 µM

CN1CCC(C(=O)N2CC(C#Cc3ccc4c(=O)c(-c5ccc(NS(C)(=O)=O)cc5)coc4c3)C2)CC1 [N-(4-(7-((1-(1-methylpiperidine-4-carbonyl)azetidin-3-yl)ethynyl)-4-oxo-4H-chromen-3-yl)phenyl)methanesulfonamide]
IC50 (hMAO-A): > 130 µM
IC50 (recombinant human ALDH2): 35 nM
IC50 (hMAO-B): > 130 µM

CN(C(=O)OC(C)(C)C)C1(C(=O)N2CC(C#Cc3ccc4c(=O)c(-c5ccc(NS(C)(=O)=O)cc5)coc4c3)C2)CC1 [tert-butyl (1-(3-((3-(4-(methylsulfonamido)-phenyl)-4-oxo-4H-chromen-7-yl)ethynyl)azetidine-1-carbonyl)cyclopropyl)-methylcarbamate]
IC50 (hMAO-A): > 130 µM
IC50 (recombinant human ALDH2): 2.3 nM
IC50 (hMAO-B): > 130 µM

COCCC(=O)N1CC(C#Cc2ccc3c(=O)c(-c4ccc(NS(C)(=O)=O)cc4)coc3c2)C1 [N-(4-(7-((1-(3-methoxypropanoyl)azetidin-3-yl)ethynyl)-4-oxo-4H-chromen-3-yl)phenyl)methanesulfonamide]
IC50 (hMAO-A): > 130 µM
IC50 (recombinant human ALDH2): 8 nM
IC50 (hMAO-B): > 130 µM

CC(C)(C)OC(=O)N1CCC(C#Cc2ccc3c(=O)c(-c4ccc(NS(C)(=O)=O)cc4)coc3c2)CC1 [tert-butyl 4-((3-(4-(methylsulfonamido)phenyl)-4-oxo-4H-chromen-7-yl)ethynyl)piperidine-1-carboxylate]
IC50 (hMAO-A): > 130 µM
IC50 (recombinant human ALDH2): 86 nM
IC50 (hMAO-B): > 130 µM

CC(C)n1cncc1C#Cc1ccc2c(=O)c(-c3ccc(NS(C)(=O)=O)cc3)coc2c1 [N-(4-(7-((1-isopropyl-1H-imidazol-5-yl)ethynyl)-4-oxo-4H-chromen-3-yl)phenyl)methanesulfonamide]
IC50 (hMAO-A): > 130 µM
IC50 (recombinant human ALDH2): 7 nM
IC50 (hMAO-B): > 130 µM

Cn1cnc(C#Cc2ccc3c(=O)c(-c4ccc(NS(C)(=O)=O)cc4)coc3c2)c1 [N-(4-(7-((1-methyl-1H-imidazol-4-yl)ethynyl)-4-oxo-4H-chromen-3-yl)phenyl)methanesulfonamide]
IC50 (hMAO-A): > 86.5 µM
IC50 (recombinant human ALDH2): 95 nM
IC50 (hMAO-B): > 130 µM

CS(=O)(=O)Nc1ccc(-c2coc3cc(C#CC4CCNCC4)ccc3c2=O)cc1 [N-(4-(4-oxo-7-(piperidin-4-ylethynyl)-4H-chromen-3-yl)phenyl)methanesulfonamide]
IC50 (hMAO-A): > 110 µM
IC50 (recombinant human ALDH2): 174 nM
IC50 (hMAO-B): > 130 µM

CS(=O)(=O)Nc1ccc(-c2coc3cc(C#Cc4cc[nH]c(=O)c4)ccc3c2=O)cc1 [N-(4-(4-oxo-7-((2-oxo-1,2-dihydropyridin-4-yl)ethynyl)-4H-chromen-3-yl)phenyl)methanesulfonamide]
IC50 (hMAO-A): > 130 µM
IC50 (recombinant human ALDH2): 9 nM
IC50 (hMAO-B): > 130 µM

CS(=O)(=O)Nc1ccc(-c2coc3cc(C#Cc4ccccc4)ccc3c2=O)cc1 [N-(4-(4-oxo-7-(phenylethynyl)-4H-chromen-3-yl)phenyl)methanesulfonamide]
IC50 (hMAO-A): > 13 µM
IC50 (recombinant human ALDH2): 329 nM
IC50 (hMAO-B): > 13 µM

CN(C)CCC(=O)N1CC(C#Cc2ccc3c(=O)c(-c4ccc(NS(C)(=O)=O)cc4)coc3c2)C1 [N-(4-(7-((1-(3-(dimethylamino)propanoyl)azetidin-3-yl)ethynyl)-4-oxo-4H-chromen-3-yl)phenyl)methanesulfonamide]
IC50 (hMAO-A): 46.9 µM
IC50 (recombinant human ALDH2): 64 nM
IC50 (hMAO-B): > 130 µM

CS(=O)(=O)Nc1ccc(-c2coc3cc(C#CC4CN(C(=O)CO)C4)ccc3c2=O)cc1 [N-(4-(7-((1-(2-hydroxyacetyl)azetidin-3-yl)ethynyl)-4-oxo-4H-chromen-3-yl)phenyl)methanesulfonamide]
IC50 (hMAO-A): > 130 µM
IC50 (recombinant human ALDH2): 15 nM
IC50 (hMAO-B): > 130 µM

Cc1ncc(C#Cc2ccc3c(=O)c(-c4ccc(NS(C)(=O)=O)cc4)coc3c2)n1C [N-(4-(7-((1,2-dimethyl-1H-imidazol-5-yl)ethynyl)-4-oxo-4H-chromen-3-yl)phenyl)methanesulfonamide]
IC50 (hMAO-A): > 130 µM
IC50 (recombinant human ALDH2): 15 nM
IC50 (hMAO-B): > 130 µM

CC(O)C(=O)N1CC(C#Cc2ccc3c(=O)c(-c4ccc(NS(C)(=O)=O)cc4)coc3c2)C1 (stereo not drawn) [N-(4-(7-((1-(2-hydroxypropanoyl)azetidin-3-yl)ethynyl)-4-oxo-4H-chromen-3-yl)phenyl)methanesulfonamide]
IC50 (hMAO-A): > 130 µM
IC50 (recombinant human ALDH2): 15 nM
IC50 (hMAO-B): > 130 µM

CS(=O)(=O)Nc1ccc(-c2coc3cc(C#CC4CCOCC4)ccc3c2=O)cc1 [N-(4-(4-oxo-7-((tetrahydro-2H-pyran-4-yl)ethynyl)-4H-chromen-3-yl)phenyl)methanesulfonamide]
IC50 (hMAO-A): > 130 µM
IC50 (recombinant human ALDH2): 43 nM
IC50 (hMAO-B): > 130 µM

CS(=O)(=O)Nc1ccc(-c2coc3cc(C#CC4CC4)ccc3c2=O)cc1 [N-(4-(7-(cyclopropylethynyl)-4-oxo-4H-chromen-3-yl)phenyl)methanesulfonamide]
IC50 (hMAO-A): > 13 µM
IC50 (recombinant human ALDH2): 57.7 nM
IC50 (hMAO-B): > 13 µM

CS(=O)(=O)Nc1ccc(-c2coc3cc(C#CC4CN(C(=O)C5CC(F)(F)C5)C4)ccc3c2=O)cc1 [N-(4-(7-((1-(3,3-difluorocyclobutanecarbonyl)azetidin-3-yl)ethynyl)-4-oxo-4H-chromen-3-yl)phenyl)methanesulfonamide]
IC50 (hMAO-A): > 130 µM
IC50 (recombinant human ALDH2): 6 nM
IC50 (hMAO-B): > 130 µM

CS(=O)(=O)Nc1ccc(-c2coc3cc(C#Cc4cncnc4)ccc3c2=O)cc1 [N-(4-(4-oxo-7-(pyrimidin-5-ylethynyl)-4H-chromen-3-yl)phenyl)methanesulfonamide]
IC50 (hMAO-A): > 130 µM
IC50 (recombinant human ALDH2): 57 nM
IC50 (hMAO-B): 114 µM

CC1(C(=O)N2CC(C#Cc3ccc4c(=O)c(-c5ccc(NS(C)(=O)=O)cc5)coc4c3)C2)COC1 [N-(4-(7-((1-(3-methyloxetane-3-carbonyl)azetidin-3-yl)ethynyl)-4-oxo-4H-chromen-3-yl)phenyl)methanesulfonamide]
IC50 (hMAO-A): > 130 µM
IC50 (recombinant human ALDH2): 6 nM
IC50 (hMAO-B): > 130 µM

CC(C)CN1CC(C#Cc2ccc3c(=O)c(-c4ccc(NS(C)(=O)=O)cc4)coc3c2)C1 [N-(4-(7-((1-isobutylazetidin-3-yl)ethynyl)-4-oxo-4H-chromen-3-yl)phenyl)methanesulfonamide]
IC50 (hMAO-A): > 130 µM
IC50 (recombinant human ALDH2): 109 nM
IC50 (hMAO-B): > 130 µM

CS(=O)(=O)Nc1ccc(-c2coc3cc(C#CC4(O)CCCC4)ccc3c2=O)cc1 [N-(4-(7-((1-hydroxycyclopentyl)ethynyl)-4-oxo-4H-chromen-3-yl)phenyl)methanesulfonamide]
IC50 (hMAO-A): > 130 µM
IC50 (recombinant human ALDH2): 386 nM and 156 nM
IC50 (hMAO-B): > 130 µM

CC(C)(C)OC(=O)N1CC(C#Cc2ccc3c(=O)c(-c4ccc(NS(C)(=O)=O)cc4)coc3c2)C1 [tert-butyl 3-((3-(4-(methylsulfonamido)phenyl)-4-oxo-4H-chromen-7-yl)ethynyl)azetidine-1-carboxylate]
IC50 (hMAO-A): > 130 µM
IC50 (recombinant human ALDH2): 9 nM
IC50 (hMAO-B): > 130 µM

COCC#Cc1ccc2c(=O)c(-c3ccc(NS(C)(=O)=O)cc3)coc2c1 [N-(4-(7-(3-methoxyprop-1-ynyl)-4-oxo-4H-chromen-3-yl)phenyl)methanesulfonamide]
IC50 (hMAO-A): > 130 µM
IC50 (recombinant human ALDH2): 47 nM
IC50 (hMAO-B): > 130 µM

CS(=O)(=O)Nc1ccc(-c2coc3cc(C#CC4CN(C(=O)OC5CCCC5)C4)ccc3c2=O)cc1 [cyclopentyl-3-((3-(4-(methylsulfonamido)phenyl)-4-oxo-4H-chromen-7-yl)ethynyl)azetidine-1-carboxylate]
IC50 (hMAO-A): > 130 µM
IC50 (recombinant human ALDH2): 9 nM
IC50 (hMAO-B): > 130 µM

CC(C)(C)OC(=O)NC1(C(=O)N2CC(C#Cc3ccc4c(=O)c(-c5ccc(NS(C)(=O)=O)cc5)coc4c3)C2)CC1 [tert-butyl 1-(3-((3-(4-(methylsulfonamido)phenyl)-4-oxo-4H-chromen-7-yl)ethynyl)azetidine-1-carbonyl)cyclopropylcarbamate]
IC50 (hMAO-A): 110 µM
IC50 (recombinant human ALDH2): 5 nM
IC50 (hMAO-B): > 130 µM

CS(=O)(=O)Nc1ccc(-c2coc3cc(C#CC4CNC4)ccc3c2=O)cc1 [N-(4-(7-(azetidin-3-ylethynyl)-4-oxo-4H-chromen-3-yl)phenyl)methanesulfonamide]
IC50 (hMAO-A): > 130 µM
IC50 (recombinant human ALDH2): 266 nM
IC50 (hMAO-B): > 94.4 µM

COCC#Cc1ccc2c(=O)c(-c3ccc(NS(=O)(=O)C4CC4)cc3)coc2c1 [N-(4-(7-(3-methoxyprop-1-ynyl)-4-oxo-4H-chromen-3-yl)phenyl)cyclopropanesulfonamide]
IC50 (hMAO-A): > 130 µM
IC50 (recombinant human ALDH2): 96 nM
IC50 (hMAO-B): > 130 µM
